Columns and labels:
MCF-10A [1] = assay: Antitumor activity against human spontaneously immortalized CDH-/- MCF10A cells assessed as cell numbers measured after 48 hrs; type: functional, cell-based
MCF-10A [2] = assay: Antitumor activity against human spontaneously immortalized wild type MCF-10A cells assessed as cell numbers measured after 48 hrs; type: functional, cell-based
[3] = Ratio of EC50 for antitumor activity against human spontaneously immortalized wild type MCF10A cells assessed as cell numbers measured after 48 hrs to antitumor activity against human spontaneously immortalized CDH-/- MCF10A cells assessed as cell numbers measured after 48 hrs; type: functional, MCF-10A
[4] = Homo sapiens, MCF-10A, 48 h, read-out: EC50

## COc1ccc2nc(-c3ccc(C)o3)cc(NCc3ccc(F)cc3)c2c1
MCF-10A [1]; [4]
  EC50: 8.3 µM
MCF-10A [2]; [4]
  EC50: 11.1 µM
[3]
  Ratio EC50: 1.4

## Cc1cc(NC2CCN(C)CC2)c2cc(OCCCN3CCCC3)ccc2n1
MCF-10A [1]; [4]
  EC50: 13.2 µM
MCF-10A [2]; [4]
  EC50: 11.4 µM
[3]
  Ratio EC50: 0.9

## COc1ccc2nc(C)cc(NCc3ccc(OC(F)F)cc3)c2c1
MCF-10A [1]; [4]
  EC50: 10.4 µM
MCF-10A [2]; [4]
  EC50: 14.7 µM
[3]
  Ratio EC50: 1.4

## COc1ccc2nc(C)cc(SCc3ccc(F)cc3)c2c1
MCF-10A [1]; [4]
  EC50: 41 µM
MCF-10A [2]; [4]
  EC50: 50.5 µM
[3]
  Ratio EC50: 1.2

## COc1ccc2nc(C)cc(NCC[C@@H]3CNC[C@H]3O)c2c1.O=C(O)C(F)(F)F
MCF-10A [1]; mcf-10a
  EC50: Nd(Toxic)
MCF-10A [2]; mcf-10a
  EC50: Nd(Toxic)

## COc1ccc2nc(C)cc(NCc3cccc(N(C)C)c3)c2c1
MCF-10A [1]; [4]
  EC50: 14 µM
MCF-10A [2]; [4]
  EC50: 14 µM
[3]
  Ratio EC50: 1

## COc1cc2c(NC3CCN(C)CC3)cc(C)nc2cc1OCCCN1CCCC1
MCF-10A [1]; [4]
  EC50: 41.1 µM
MCF-10A [2]; [4]
  EC50: 39.2 µM
[3]
  Ratio EC50: 1

## COc1ccc2nc(C)cc(NCc3ccccc3F)c2c1
MCF-10A [1]; [4]
  EC50: 14 µM
MCF-10A [2]; [4]
  EC50: 17 µM
[3]
  Ratio EC50: 1.2

## COc1ccc2nccc(NCc3ccc(F)cc3)c2c1
MCF-10A [1]; [4]
  EC50: 13.3 µM
MCF-10A [2]; [4]
  EC50: 16.4 µM
[3]
  Ratio EC50: 1.2

## COc1ccc2nc(C)cc(NCc3cccc(F)c3)c2c1
MCF-10A [1]; [4]
  EC50: 11.3 µM
MCF-10A [2]; [4]
  EC50: 14.7 µM
[3]
  Ratio EC50: 1.3

## COc1ccc2nc(C)cc(NCc3ccc(C(C)(C)C)cc3)c2c1
MCF-10A [1]; [4]
  EC50: 6.9 µM
MCF-10A [2]; [4]
  EC50: 7 µM
[3]
  Ratio EC50: 1

## COc1cc2c(NCc3ccc(F)cc3)cc(C)nc2cc1OCCCN1CCCC1
MCF-10A [1]; [4]
  EC50: 1.9 µM
MCF-10A [2]; [4]
  EC50: 2.1 µM
[3]
  Ratio EC50: 1.1

## COc1cc2c(NCc3ccc(F)cc3)cc(-c3ccc(C)o3)nc2cc1OCCCN1CCCC1
MCF-10A [1]; [4]
  EC50: 1.8 µM
MCF-10A [2]; [4]
  EC50: 2.1 µM
[3]
  Ratio EC50: 1.1

## COc1ccc(CNc2cc(C)nc3ccc(OC)cc23)cc1
MCF-10A [1]; [4]
  EC50: 7 µM
MCF-10A [2]; [4]
  EC50: 9.7 µM
[3]
  Ratio EC50: 1.4

## COc1ccc2nc(C)cc(NCc3ccc(OC)c(F)c3)c2c1
MCF-10A [1]; [4]
  EC50: 9 µM
MCF-10A [2]; [4]
  EC50: 10.3 µM
[3]
  Ratio EC50: 1.1

## COc1ccc2nc(C)cc(NCC3CCCN(C)C3)c2c1 (stereo unspecified)
MCF-10A [1]; [4]
  EC50: 6.4 µM
MCF-10A [2]; [4]
  EC50: 5.8 µM

## COc1ccc2nc(C)cc(NC3CCN(C)CC3)c2c1
MCF-10A [1]; [4]
  EC50: 7.8 µM
MCF-10A [2]; [4]
  EC50: 7.1 µM
[3]
  Ratio EC50: 0.9

## COc1ccc2nc(C)cc(NCc3ccc(C)cc3)c2c1
MCF-10A [1]; [4]
  EC50: 18.8 µM
MCF-10A [2]; [4]
  EC50: 22.4 µM
[3]
  Ratio EC50: 1.2

## COc1ccc2nc(-c3ccc(C)o3)cc(NC3CCN(C)CC3)c2c1
MCF-10A [1]; [4]
  EC50: 1.1 µM
MCF-10A [2]; [4]
  EC50: 0.8 µM
[3]
  Ratio EC50: 0.8

## COc1ccc2nc(C)cc(NCc3cccc4ccccc34)c2c1
MCF-10A [1]; [4]
  EC50: 4.1 µM
MCF-10A [2]; [4]
  EC50: 50 µM
[3]
  Ratio EC50: 12

## COc1ccc2nc(CO)cc(NC3CCN(C)CC3)c2c1
MCF-10A [1]; [4]
  EC50: 32.3 µM
MCF-10A [2]; [4]
  EC50: 30.1 µM
[3]
  Ratio EC50: 0.9

## COc1ccc2nc(C)cc(NCc3ccc(-c4ccccc4)cc3)c2c1
MCF-10A [1]; [4]
  EC50: 2.8 µM
MCF-10A [2]; [4]
  EC50: 2.7 µM
[3]
  Ratio EC50: 1

## COc1ccc2nc(C)cc(NCc3ccncc3)c2c1
MCF-10A [1]; [4]
  EC50: 40.9 µM
MCF-10A [2]; [4]
  EC50: 41.6 µM
[3]
  Ratio EC50: 1

## COc1ccc2nc(C)cc(NCc3ccc(N(C)C)cc3)c2c1
MCF-10A [1]; [4]
  EC50: 15.1 µM
MCF-10A [2]; [4]
  EC50: 20 µM
[3]
  Ratio EC50: 1.3

## COc1ccc2nc(C)cc(NCc3ccc(F)cc3C(F)(F)F)c2c1
MCF-10A [1]; [4]
  EC50: 5.2 µM
MCF-10A [2]; [4]
  EC50: 4.2 µM
[3]
  Ratio EC50: 0.8

## COc1ccc2nc(COCCCCCCN=[N+]=[N-])cc(NCc3ccc(F)cc3)c2c1.O=C(O)C(F)(F)F
MCF-10A [1]; [4]
  EC50: 8.4 µM
MCF-10A [2]; [4]
  EC50: 8.9 µM
[3]
  Ratio EC50: 1.1

## Cc1cc(NCc2cccc(C#N)c2)c2cc(OCCCN3CCCC3)ccc2n1
MCF-10A [1]; [4]
  EC50: 8.5 µM
MCF-10A [2]; [4]
  EC50: 10.3 µM
[3]
  Ratio EC50: 1.2

## COc1cc2c(NC3CCN(C)CC3)cc(-c3ccc(C)o3)nc2cc1OCCCN1CCCC1
MCF-10A [1]; [4]
  EC50: 0.2 µM
MCF-10A [2]; [4]
  EC50: 0.5 µM

## COc1ccc2nc(C)cc(NCc3c(F)cccc3C(F)(F)F)c2c1
MCF-10A [1]; [4]
  EC50: 14.2 µM
MCF-10A [2]; [4]
  EC50: 14 µM
[3]
  Ratio EC50: 1

## COc1ccc2nc(C)cc(NCc3ccc(F)c(F)c3)c2c1
MCF-10A [1]; [4]
  EC50: 9.1 µM
MCF-10A [2]; [4]
  EC50: 12 µM
[3]
  Ratio EC50: 1.3

## CCCCCCOc1ccc2nc(C)cc(NCc3ccc(F)cc3)c2c1
MCF-10A [1]; [4]
  EC50: 8.8 µM
MCF-10A [2]; [4]
  EC50: 9.1 µM
[3]
  Ratio EC50: 1

## COc1ccc2nc(C)cc(NCc3ccccc3OC)c2c1
MCF-10A [1]; [4]
  EC50: 25.2 µM
MCF-10A [2]; [4]
  EC50: 29.5 µM
[3]
  Ratio EC50: 1.2

## COc1ccc2nc(C)cc(NCc3cccc(CO)c3)c2c1
MCF-10A [1]; [4]
  EC50: 17.1 µM
MCF-10A [2]; [4]
  EC50: 24.7 µM
[3]
  Ratio EC50: 1.4

## Cc1cc(NCc2ccc(F)cc2)c2ccccc2n1
MCF-10A [1]; [4]
  EC50: 15.4 µM
MCF-10A [2]; [4]
  EC50: 20.1 µM
[3]
  Ratio EC50: 1.3

## COc1ccc2nc(C)cc(NCc3c(F)cccc3F)c2c1
MCF-10A [1]; [4]
  EC50: 13.6 µM
MCF-10A [2]; [4]
  EC50: 13.6 µM
[3]
  Ratio EC50: 1.3

## COc1ccc2nc(C)cc(NCc3ccccc3CO)c2c1
MCF-10A [1]; [4]
  EC50: 22.9 µM
MCF-10A [2]; [4]
  EC50: 25.9 µM
[3]
  Ratio EC50: 1.1

## COc1ccc2nc(C)cc(NC[C@H]3NC[C@H](O)[C@@H]3O)c2c1.O=C(O)C(F)(F)F
MCF-10A [1]; mcf-10a
  EC50: Nd(Toxic)
MCF-10A [2]; mcf-10a
  EC50: Nd(Toxic)

## COc1ccc2nc(C)cc(NCc3cccc(C#N)c3)c2c1
MCF-10A [1]; [4]
  EC50: 13.4 µM
MCF-10A [2]; [4]
  EC50: 17.4 µM
[3]
  Ratio EC50: 1.3

## CCCOc1ccc2nc(C)cc(NCc3ccc(F)cc3)c2c1
MCF-10A [1]; [4]
  EC50: 9.8 µM
MCF-10A [2]; [4]
  EC50: 14.3 µM
[3]
  Ratio EC50: 1.5

## COc1ccc2nc(C)cc(SCc3ccccc3)c2c1
MCF-10A [1]; [4]
  EC50: 30.6 µM
MCF-10A [2]; [4]
  EC50: 37.1 µM
[3]
  Ratio EC50: 1.2

## COc1ccc2nc(C)cc(NCc3cccc(-c4ccccc4)c3)c2c1
MCF-10A [1]; [4]
  EC50: 2.8 µM
MCF-10A [2]; [4]
  EC50: 3.1 µM
[3]
  Ratio EC50: 1.1

## COc1ccc2nc(C)cc(NCc3ccc(C(F)(F)F)cc3)c2c1
MCF-10A [1]; [4]
  EC50: 7.6 µM
MCF-10A [2]; [4]
  EC50: 7.6 µM
[3]
  Ratio EC50: 1.4

## CCCCCCCCOc1ccc2nc(C)cc(NCc3ccc(F)cc3)c2c1
MCF-10A [1]; [4]
  EC50: 1.8 µM
MCF-10A [2]; [4]
  EC50: 2.2 µM
[3]
  Ratio EC50: 1.1

## COc1ccc2nc(C)cc(NCc3ccc(F)cc3F)c2c1
MCF-10A [1]; [4]
  EC50: 11.6 µM
MCF-10A [2]; [4]
  EC50: 15 µM
[3]
  Ratio EC50: 1.3

## COc1ccc2nc(C)cc(NCc3cccc(C(F)(F)F)c3)c2c1
MCF-10A [1]; [4]
  EC50: 7.2 µM
MCF-10A [2]; [4]
  EC50: 8 µM
[3]
  Ratio EC50: 1

## COc1ccc2nc(C)cc(NCc3ccc(F)c(C(F)(F)F)c3)c2c1
MCF-10A [1]; [4]
  EC50: 11.3 µM
MCF-10A [2]; [4]
  EC50: 14.3 µM
[3]
  Ratio EC50: 1

## COc1cccc(CNc2cc(C)nc3ccc(OC)cc23)c1
MCF-10A [1]; [4]
  EC50: 9.7 µM
MCF-10A [2]; [4]
  EC50: 12.5 µM
[3]
  Ratio EC50: 1.3

## COc1cccc(CNc2cc(C)nc3ccc(OCCCN4CCCC4)cc23)c1
MCF-10A [1]; [4]
  EC50: 3.6 µM
MCF-10A [2]; [4]
  EC50: 3.6 µM
[3]
  Ratio EC50: 1.2

## CCCCCCCOc1cc(OC)cc2c(NCc3ccc(F)cc3)cc(C)nc12
MCF-10A [1]; [4]
  EC50: 2.7 µM
MCF-10A [2]; [4]
  EC50: 3.3 µM
[3]
  Ratio EC50: 1.2

## COc1ccc2nc(C)cc(Nc3ccc(F)cc3)c2c1
MCF-10A [1]; [4]
  EC50: 28 µM
MCF-10A [2]; [4]
  EC50: 29.8 µM
[3]
  Ratio EC50: 1.1

## COc1ccc2nc(C)cc(NCc3ccc(F)cc3)c2c1
MCF-10A [1]; [4]
  EC50: 8.2 µM
MCF-10A [2]; [4]
  EC50: 12.2 µM
[3]
  Ratio EC50: 1.5

## Cc1cc(NCc2ccc(F)cc2)c2cc(OCCCCCCN=[N+]=[N-])ccc2n1
MCF-10A [1]; [4]
  EC50: 4.1 µM
MCF-10A [2]; [4]
  EC50: 4 µM
[3]
  Ratio EC50: 1

## CCCCCCCOc1cc2nc(C)cc(NCc3ccc(F)cc3)c2cc1OC
MCF-10A [1]; [4]
  EC50: 1.7 µM
MCF-10A [2]; [4]
  EC50: 2.2 µM

## COc1ccc2nc(C)cc(NCc3ccc(F)c(OC)c3)c2c1
MCF-10A [1]; [4]
  EC50: 9.5 µM
MCF-10A [2]; [4]
  EC50: 12.9 µM
